Source: patent US20030125389A1, “Beta-amino acid derivatives useful for the treatment of bacterial infections” (priority 2001, published 2003)

Assays:
[1] = test system: Escherichia coli ATCC 25922; test: Mouse septicemia model; assay type: in vivo; details: ATCC25922, ICR male mice, E. coli ATCC 25922 intraperitoneally, compound PO or IV at 1 and 5 hours after inoculation, mortality recorded for 7 days
Method: Escherichia coli ATCC 25922 was used to test the efficacy of compounds in a mouse septicemia model using six ICR male mice per group. Mice were inoculated intraperitoneally with 2×10^5 cfu/mouse in 0.5 ml of Brain-Heart Infusion broth supplemented with 5% mucin. The compounds were tested at 40, 20, 10, 5 and 2.5 mg/kg orally (PO) or at 20, 10, 5 and 2.5 mg/kg intravenously (IV) at 1 and 5 hours after bacterial inoculation. Controls included vehicle control (0.9% NaCl, 10 ml/kg) and an antibiotic control with ampicillin. Mortality was recorded for 7 days, and an ED50 was determined by non-linear regression.

[2] = test system: Gram negative and Gram positive bacteria; details: against Gram negative and Gram positive bacteria; cited from earlier work
[3] = test system: a variety of standard laboratory microorganisms; details: cited from earlier work

With `CNC[C@H](O)C[C@@H](N)CC(=O)NN(C)CC(=O)O` [Example 1] the ED50 [1] was < 40 mg/kg.
For `CN(CC(=O)O)NC(=O)C[C@H](N)C[C@@H](O)CN` [Negamycin, [2-{(3R, 5R)-3,6-diamino-5-hydroxyhexanoyl}-1-methylhydrazino]acetic acid], the inhibitory activity [2] is given as “strong inhibitory activity”.
For `CN(CC(=O)O)NC(=O)C[C@H](N)C[C@@H](F)CN` [Example 5, {N′-[(3R)-Amino-6-amino-(5R)-fluorohexanoyl]-N-methylhydrazino}acetic acid], the ED50 [1] was < 40 mg/kg.
For `CNC[C@H](F)C[C@@H](N)CC(=O)NN(C)CC(=O)O` [Example 7, {N′-[(3R)-Amino-(5R)-fluoro-6-methylaminohexanoyl]-N-methylhydrazino}acetic acid], the ED50 [1] was < 40 mg/kg.
For `CN(CC(=O)O)NC(=O)C[C@H](N)CCCN` [Deoxynegamycin, D-3,6-diaminiohexanoic acid-2-(carboxymethyl)-2-methylhyrazide], the “antimicrobial activity in vitro” value [3] is listed as “broad-spectrum antibacterial and antifungal activity”.
